Patent US9322066B2, “Predictors for cancer treatment” (priority 2011, dated 2016)

Test system: relapsed or refractory, rituximab-naive or -sensitive follicular B-cell NHL
Experiment: Time to next anti-lymphoma therapy, Vc-R vs rituximab study, by biomarker
Type: in vivo, human
Parameters: Median, Time to Next Anti-Lymphoma Therapy / Time to Next Anti-Lymphoma Therapy, Median: unit not given here
Text: Non-Hodgkin lymphoma (NHL) encompasses several unique malignant lymphoid disease entities that vary in clinical behavior, morphologic appearance, immunologic, and molecular phenotype. […] A randomized, open-label, active-controlled, multicenter, multinational, prospective study to compare the efficacy and safety of the combination of bortezomib and rituximab (Vc-R) to single-agent rituximab in subjects who have relapsed or refractory, rituximab-naive or -sensitive follicular B-cell NHL was performed.
Subjects were centrally randomized to Treatment Groups A (Vc-R) or B (rituximab) in a 1:1 ratio taking into account the following stratification factors: • Follicular Lymphoma International Prognostic Index (FLIPI) score (low [0 or 1 factor], intermediate [2 factors], high [≧3 factors]); • Prior rituximab therapy (yes, no); • Time since last dose of anti-lymphoma therapy (≦1 year, >1 year); • Region (United States/Canada, European Union, Rest of World).
The following clinical endpoints were included in the analysis within each treatment group and an overall comparison was made with the biomarker-related endpoints: Progression-free survival, defined as the interval between the date of randomization and the date of progressive disease (PD) or death, whichever is first reported in the ITT population; overall survival; overall response rate (complete response [CR]+CR unconfirmed [CRu]+partial response [PR]); overall CR rate (CR+CRu); duration of response; time to next anti-lymphoma therapy; and treatment free interval.

[1] = CD68 POSITIVE PERIFOLLICULAR: 0-25, White, IRC Review
[2] = CD68 POSITIVE PERIFOLLICULAR: 0-25, ≦65 years old, IRC Review
[3] = CD68 POSITIVE PERIFOLLICULAR: 26-50, Other, IRC Review
[4] = CD68 POSITIVE PERIFOLLICULAR: >75, 1 Prior Line of Therapy, IRC Review
[5] = CD68 POSITIVE PERIFOLLICULAR: >75, European Union, IRC Review
[6] = CD68 POSITIVE PERIFOLLICULAR: >75, ≦65 years old, IRC Review
[7] = NOTCH/G_A1702P: MND, subgroup White, IRC review
[8] = NOTCH/I1681N: MND, subgroup White, IRC review
[9] = NOTCH/L1679P: MND, subgroup White, IRC review
[10] = NOTCH/L1679Q: MND, subgroup White, IRC review
[11] = NOTCH/L2458V: MND, subgroup White, IRC review
[12] = NOTCH/P2513L: MND, subgroup White, IRC review
[13] = NOTCH/P2515FS4: MND, subgroup White, IRC review
[14] = NOTCH/Q2441X: MND, subgroup White, IRC review
[15] = NOTCH/Q2460X: MND, subgroup White, IRC review
[16] = NOTCH/X26DEL: MND, subgroup White, IRC review
[17] = NOTCH/X26INS: MND, subgroup White, IRC review
[18] = NOTCH/X28DEL: MND, subgroup White, IRC review
[19] = NOTCH/X28INS: MND, subgroup White, IRC review
[20] = P27 % NUCLEI POSITIVE: 0-20, 1 Prior Line of Therapy, IRC Review
[21] = P27 % NUCLEI POSITIVE: 0-20, Ann Arbor Stage III, IRC Review
[22] = P27 % NUCLEI POSITIVE: 0-20, High Tumor Burden, IRC Review
[23] = P27 % NUCLEI POSITIVE: 0-20, ≦65 years old, IRC Review
[24] = P27 % NUCLEI POSITIVE: 30-50, High Tumor Burden, IRC Review
[25] = P27 % NUCLEI POSITIVE: 80-100, European Union, IRC Review
[26] = P27 SIGNAL INTENSITY: ≦1+, High Tumor Burden, IRC Review
[27] = P27 SIGNAL INTENSITY: ≧2+, 5 Prior Lines of Therapy, IRC Review
[28] = P27 SIGNAL INTENSITY: ≧2+, European Union, IRC Review
[29] = P27 SIGNAL INTENSITY: ≧2+, Prior Rituximab Therapy, IRC Review
[30] = P27 SIGNAL INTENSITY: ≧2+, White, IRC Review
[31] = P27 SIGNAL INTENSITY: ≧2+, ≦65 years old, IRC Review
[32] = P27 SIGNAL TENSITY: ≧2+, No Subgroup, IRC Review
[33] = P65 % NUCLEAR STAINING: 0, 1 Prior Line of Therapy, IRC Review
[34] = P65 % NUCLEAR STAINING: ≦5%, 2 Prior Lines of Therapy, IRC Review
[35] = P65 % NUCLEAR STAINING: ≦5%, 5 Prior Lines of Therapy, IRC Review
[36] = P65 % NUCLEAR STAINING: ≦5%, Prior Rituximab Therapy, IRC Review
[37] = P65 % NUCLEAR STAINING: ≦5%, ≦65 years old, IRC Review
[38] = P65 % POSITIVE CYTOPLASMIC SIGNAL: >90%, 1 Prior Line of Therapy, IRC Review
[39] = P65 % POSITIVE CYTOPLASMIC SIGNAL: >90%, >1 year since last anti- lymphoma treatment, IRC Review
[40] = P65 % POSITIVE CYTOPLASMIC SIGNAL: >90%, European Union, IRC Review
[41] = P65 % POSITIVE CYTOPLASMIC SIGNAL: >90%, Male, IRC Review
[42] = P65 % POSITIVE CYTOPLASMIC SIGNAL: >90%, No Subgroup, IRC Review
[43] = P65 % POSITIVE CYTOPLASMIC SIGNAL: >90%, White, IRC Review
[44] = P65 % POSITIVE CYTOPLASMIC SIGNAL: >90%, ≦65 years old, IRC Review
[45] = P65 INTENSITY CYTOPLASMIC SIGNAL: ≦1+, Ann Arbor Stage III, IRC Review
[46] = P65 INTENSITY CYTOPLASMIC SIGNAL: ≦1+, European Union, IRC Review
[47] = P65 INTENSITY CYTOPLASMIC SIGNAL: ≧2+, 1 Prior Line of Therapy, IRC Review
[48] = P65 INTENSITY CYTOPLASMIC SIGNAL: ≧2+, Female, IRC Review
[49] = P65 INTENSITY CYTOPLASMIC SIGNAL: ≧2+, White, IRC Review

rituximab
Evt/N, Time to Next Anti-Lymphoma Therapy [1]: 19/27 | Median, Time to Next Anti-Lymphoma Therapy [1]: 501 | Evt/N, Time to Next Anti-Lymphoma Therapy [2]: 20/31 | Median, Time to Next Anti-Lymphoma Therapy [2]: 332 | Evt/N, Time to Next Anti-Lymphoma Therapy [3]: 4/4 | Median, Time to Next Anti-Lymphoma Therapy [3]: 341 | Evt/N, Time to Next Anti-Lymphoma Therapy [4]: 15/18 | Median, Time to Next Anti-Lymphoma Therapy [4]: 437 | Evt/N, Time to Next Anti-Lymphoma Therapy [5]: 13/17 | Median, Time to Next Anti-Lymphoma Therapy [5]: 675 | Evt/N, Time to Next Anti-Lymphoma Therapy [6]: 19/23 | Median, Time to Next Anti-Lymphoma Therapy [6]: 437 | Evt/N, Time to Next Anti-Lymphoma Therapy [7]: 97/152 | Median, Time to Next Anti-Lymphoma Therapy [7]: 504 | Evt/N, Time to Next Anti-Lymphoma Therapy [8]: 97/152 | Median, Time to Next Anti-Lymphoma Therapy [8]: 504 | Evt/N, Time to Next Anti-Lymphoma Therapy [9]: 97/152 | Median, Time to Next Anti-Lymphoma Therapy [9]: 504 | Evt/N, Time to Next Anti-Lymphoma Therapy [10]: 97/152 | Median, Time to Next Anti-Lymphoma Therapy [10]: 504 | Evt/N, Time to Next Anti-Lymphoma Therapy [11]: 89/140 | Median, Time to Next Anti-Lymphoma Therapy [11]: 504 | Evt/N, Time to Next Anti-Lymphoma Therapy [12]: 78/122 | Median, Time to Next Anti-Lymphoma Therapy [12]: 504 | Evt/N, Time to Next Anti-Lymphoma Therapy [13]: 99/154 | Median, Time to Next Anti-Lymphoma Therapy [13]: 505 | Evt/N, Time to Next Anti-Lymphoma Therapy [14]: 88/139 | Median, Time to Next Anti-Lymphoma Therapy [14]: 501 | Evt/N, Time to Next Anti-Lymphoma Therapy [15]: 85/131 | Median, Time to Next Anti-Lymphoma Therapy [15]: 501 | Evt/N, Time to Next Anti-Lymphoma Therapy [16]: 99/155 | Median, Time to Next Anti-Lymphoma Therapy [16]: 505 | Evt/N, Time to Next Anti-Lymphoma Therapy [17]: 101/159 | Median, Time to Next Anti-Lymphoma Therapy [17]: 533 | Evt/N, Time to Next Anti-Lymphoma Therapy [18]: 111/169 | Median, Time to Next Anti-Lymphoma Therapy [18]: 504 | Evt/N, Time to Next Anti-Lymphoma Therapy [19]: 115/174 | Median, Time to Next Anti-Lymphoma Therapy [19]: 504 | Evt/N, Time to Next Anti-Lymphoma Therapy [20]: 19/26 | Median, Time to Next Anti-Lymphoma Therapy [20]: 434 | Evt/N, Time to Next Anti-Lymphoma Therapy [21]: 14/16 | Median, Time to Next Anti-Lymphoma Therapy [21]: 418 | Evt/N, Time to Next Anti-Lymphoma Therapy [22]: 23/27 | Median, Time to Next Anti-Lymphoma Therapy [22]: 220 | Evt/N, Time to Next Anti-Lymphoma Therapy [23]: 26/34 | Median, Time to Next Anti-Lymphoma Therapy [23]: 327 | Evt/N, Time to Next Anti-Lymphoma Therapy [24]: 17/22 | Median, Time to Next Anti-Lymphoma Therapy [24]: 421 | Evt/N, Time to Next Anti-Lymphoma Therapy (P27 % NUCLEI POSITIVE: 60-70, 3 Prior Lines of Therapy, IRC Review): 1/6 | Evt/N, Time to Next Anti-Lymphoma Therapy [25]: 29/41 | Median, Time to Next Anti-Lymphoma Therapy [25]: 655 | Evt/N, Time to Next Anti-Lymphoma Therapy [26]: 16/18 | Median, Time to Next Anti-Lymphoma Therapy [26]: 220 | Evt/N, Time to Next Anti-Lymphoma Therapy [27]: 5/6 | Median, Time to Next Anti-Lymphoma Therapy [27]: 228 | Evt/N, Time to Next Anti-Lymphoma Therapy [28]: 57/89 | Median, Time to Next Anti-Lymphoma Therapy [28]: 649 | Evt/N, Time to Next Anti-Lymphoma Therapy [29]: 60/88 | Median, Time to Next Anti-Lymphoma Therapy [29]: 421 | Evt/N, Time to Next Anti-Lymphoma Therapy [30]: 113/177 | Median, Time to Next Anti-Lymphoma Therapy [30]: 533 | Evt/N, Time to Next Anti-Lymphoma Therapy [31]: 103/153 | Median, Time to Next Anti-Lymphoma Therapy [31]: 484 | Evt/N, Time to Next Anti-Lymphoma Therapy [32]: 127/199 | Median, Time to Next Anti-Lymphoma Therapy [32]: 533 | Evt/N, Time to Next Anti-Lymphoma Therapy [33]: 54/79 | Median, Time to Next Anti-Lymphoma Therapy [33]: 546 | Evt/N, Time to Next Anti-Lymphoma Therapy [34]: 7/9 | Median, Time to Next Anti-Lymphoma Therapy [34]: 225 | Evt/N, Time to Next Anti-Lymphoma Therapy [35]: 3/3 | Median, Time to Next Anti-Lymphoma Therapy [35]: 235 | Evt/N, Time to Next Anti-Lymphoma Therapy [36]: 16/21 | Median, Time to Next Anti-Lymphoma Therapy [36]: 232 | Evt/N, Time to Next Anti-Lymphoma Therapy [37]: 19/29 | Median, Time to Next Anti-Lymphoma Therapy [37]: 374 | Evt/N, Time to Next Anti-Lymphoma Therapy [38]: 59/89 | Median, Time to Next Anti-Lymphoma Therapy [38]: 550 | Evt/N, Time to Next Anti-Lymphoma Therapy [39]: 69/117 | Median, Time to Next Anti-Lymphoma Therapy [39]: 593 | Evt/N, Time to Next Anti-Lymphoma Therapy [40]: 57/92 | Median, Time to Next Anti-Lymphoma Therapy [40]: 552 | Evt/N, Time to Next Anti-Lymphoma Therapy [41]: 51/72 | Median, Time to Next Anti-Lymphoma Therapy [41]: 427 | Evt/N, Time to Next Anti-Lymphoma Therapy [42]: 129/204 | Median, Time to Next Anti-Lymphoma Therapy [42]: 505 | Evt/N, Time to Next Anti-Lymphoma Therapy [43]: 113/179 | Median, Time to Next Anti-Lymphoma Therapy [43]: 505 | Evt/N, Time to Next Anti-Lymphoma Therapy [44]: 103/154 | Median, Time to Next Anti-Lymphoma Therapy [44]: 484 | Evt/N, Time to Next Anti-Lymphoma Therapy [45]: 10/11 | Median, Time to Next Anti-Lymphoma Therapy [45]: 261 | Evt/N, Time to Next Anti-Lymphoma Therapy [46]: 13/18 | Median, Time to Next Anti-Lymphoma Therapy [46]: 409 | Evt/N, Time to Next Anti-Lymphoma Therapy [47]: 54/85 | Median, Time to Next Anti-Lymphoma Therapy [47]: 568 | Evt/N, Time to Next Anti-Lymphoma Therapy [48]: 74/129 | Median, Time to Next Anti-Lymphoma Therapy [48]: 537 | Evt/N, Time to Next Anti-Lymphoma Therapy [49]: 109/176 | Median, Time to Next Anti-Lymphoma Therapy [49]: 533 | Evt/N, Time to Next Anti-Lymphoma Therapy (P65 INTENSITY CYTOPLASMIC SIGNAL: ≧2+, ≦65 years old, IRC Review): 101/152
